Experimental data from US20260240839A1, “Pharmaceutical composition of tetramethylpyrazine nitrone for injection and a method for manufacture thereof” (GUANGZHOU MAGPIE PHARMACEUTICALS CO., LTD., priority 2022, published 2026).

Experiment: Solution stability of tetramethylpyrazine nitrone in different solvents at 25° C.
Type: physicochemical
Conditions: for Total impurities / Content: 25° C.
Method: Here, “NA” indicates not measured. “Total impurities” at 0 hour refer to that detected when API of tetramethylpyrazine nitrone is just prepared into a solution.
In 0.1 M HCl, the stability of tetramethylpyrazine nitrone compounds is low, and they begin to degrade as soon as they form a solution. After 3 hours, they completely degrade, and the total content of related substances reaches 100%.

Compound: Cc1nc(C)c(/C=[N+](\[O-])C(C)(C)C)nc1C [tetramethylpyrazine nitrone]
- Total impurities (0.1M HCl, 0 h): 59.28%
- Content (0.1M HCl, 3 h): 0%
- Total impurities (0.1M HCl, 3 h): 100%
- Content (0.1M HCl, 24 h): 0%
- Total impurities (0.1M HCl, 24 h): 100%
- Total impurities (0.1M NaOH, 0 h): 17.78%
- Content (0.1M NaOH, 3 h): 81.8%
- Total impurities (0.1M NaOH, 3 h): 31.38%
- Content (0.1M NaOH, 24 h): 56.54%
- Total impurities (0.1M NaOH, 24 h): 49.23%
- Content (Pure water, 0 h): 100%
- Total impurities (Pure water, 0 h): 0.27%
- Content (Pure water, 3 h): 99.71%
- Total impurities (Pure water, 3 h): 0.39%
- Content (Pure water, 24 h): 98.54%
- Total impurities (Pure water, 24 h): 1.16%
- Stability in solution (buffer solutions ranging from pH 6.0 to pH 7.4 at 25° C.): relatively stable
- Total impurities (pH 4.5 Acetate buffer, 0 h): 8.36%
- Content (pH 4.5 Acetate buffer, 3 h): 83.64%
- Total impurities (pH 4.5 Acetate buffer, 3 h): 23.6%
- Content (pH 4.5 Acetate buffer, 24 h): 60.56%
- Total impurities (pH 4.5 Acetate buffer, 24 h): 44.44%
- Content (pH 6.0 phosphate buffer, 0 h): 100%
- Total impurities (pH 6.0 phosphate buffer, 0 h): 0.33%
- Content (pH 6.0 phosphate buffer, 3 h): 98.39%
- Total impurities (pH 6.0 phosphate buffer, 3 h): 0.44%
- Content (pH 6.0 phosphate buffer, 6 h): 98.65%
- Total impurities (pH 6.0 phosphate buffer, 6 h): 0.9%
- Content (pH 6.0 phosphate buffer, 24 h): 96.62%
- Total impurities (pH 6.0 phosphate buffer, 24 h): 2.19%
- Content (pH 6.4 Phosphate buffer, 0 h): 100%
- Total impurities (pH 6.4 Phosphate buffer, 0 h): 0.31%
- Content (pH 6.4 Phosphate buffer, 3 h): 98.85%
- Total impurities (pH 6.4 Phosphate buffer, 3 h): 0.4%
- Content (pH 6.4 Phosphate buffer, 24 h): 97.78%
- Total impurities (pH 6.4 Phosphate buffer, 24 h): 0.93%
- Content (pH 7.4 Phosphate buffer, 0 h): 100%
- Total impurities (pH 7.4 Phosphate buffer, 0 h): 0.47%
- Content (pH 7.4 Phosphate buffer, 3 h): 100.83%
- Total impurities (pH 7.4 Phosphate buffer, 3 h): 0.39%
- Content (pH 7.4 Phosphate buffer, 24 h): 99.92%
- Total impurities (pH 7.4 Phosphate buffer, 24 h): 1%
- Stability in solution (solutions with a pH lower than 6.0): low
